Assay [1] relates to cornea. As to the kind of experiment: Optical coherence tomography, corneal apical thickness. Further details: species or system rabbit. As to conditions: for sustained thickness change, treated vs control / thickness increase compared to the baseline: final time point; for thickness increase compared to the baseline: all eyes (treated and control). As to the method:
(§1) In Group2 (n=15 rabbits), to assess corneal flattening, 24 intact eyeballs (12 rabbits) were enucleated and placed into a custom-build holder such that one eye was subject to ROS-Glycation-CXL, and the other served as a paired control. After 1 hr incubation in 20% ribose PBS, all apical eyeballs were pressed with a coverslip until the contact between the cornea and the coverslip reached approximately 3 mm in diameter until the treatment finished. Group 2A's (n=6 pairs) treated eyes were exposed to 1.5 hours of UVA lamp irradiation, whereas Group 2 B's (n=6 pairs) treated eyes were exposed to 3 hours of UVA lamp irradiation. Intraocular pressure was kept at 18-20 mm H2O through an IV system with needles connecting at the posterior side of the eyeball. In order to investigate the mechanical difference between the 1.5 hrs and 3 hrs irradiation groups, Group 2C's (n=3 pairs) corneas went through similar preparations as Group 1 corneas did such that the two treatments with different irradiation times were applied to the pair of eyes from the same animal. The corneas' cross-section and apical thickness were measured using an optical coherence tomographer (OQ LabScope Lumedica, North Carolina, USA) at the same time points described above. The thickness of the corneas was first segmented in ImageJ and calculated using a constant pixel-to-length conversion factor.

Assay [2] relates to cornea. As to the kind of experiment: Corneal topography (EyeSys), effective refractive power of ex vivo eyes crosslinked under coverslip loading. Further details: species or system rabbit. As to conditions: for immediate diopter drop (words) / sustained diopter drop (words): 20% ribose 1 hr + UVA 365 nm lamp up to 3 hrs; for immediate diopter drop (words): coverslip (Hypothesis 2B / Group3); for sustained diopter drop (words): coverslip, final time point 8-10 hours; for immediate diopter drop (decrease in effective refractive power): immediately after irradiation.
From the text: • 5 additional rabbits (Paired treated and control for OS/OD) • Sample preparation for ex vivo EyeSys topography: • connected to IV system (˜15 mm H2O) • Epithelium removed • CxL during mechanical deformation introduced by the coverslip • Point1: 1 hr after IV stabilization • Point2: after applying 20% (1.7M) Ribose, then 20% Dextran • Point3: after flattening/treatment (˜2 hrs) • (flattened 8-10 mm) • Point4: ˜1 hr after point3 • Point5: last point (might need trypan blue on top) • Laser Treatments: • Fidelity II, 1069 nm, 39fs, 450 mW • Focusing: no (deliberate) spark around touching the tissue • ZEISS 40X, NA=0.1463 • Z: increments 20 μm, 5 layers (several intervals) • 1 stlayer 15 μm below surface of focus sparking • XY: 10 μm zigzag grid, 3 mm radius circle • Motor speed 2.6 mm/s, full circle treatments: ˜25*5 mins • Representative OCT and visual changes are shown in appended FIGS. 1-25.
• 3 additional rabbits (Paired treated and control for OS/OD) • connected to IV system, stabilize for ˜1 hr • Trypan Blue inside the anterior chamber beneath cornea • CxL during mechanical deformation introduced by the coverslip • (˜40%-60% flattened by coverslip from the total diameter) • Treatment Protocol-1 hr submerged in 20% w/v Ribose in 20% Dextran • up to 3 hrs of UVA lamp (visible flattening as an indicator for duration)
Corneal Topography: For Group3 eyes, using an EyeSys Vista handheld topographer, the effective refractive power (Eff.Rp) was collected at multiple time points in a 10-hour period after eye harvest. The immediate diopter drop was defined as the difference between the initial baseline Eff.Rp and the Eff.Rp immediately after CXL. The sustained diopter drop was defined as the difference between the initial baseline Eff.Rp and the final Eff.Rp. Statistical Analysis: One-tailed paired t-tests were used for statistical analysis of Eff.Rp (Group3); two-tailed paired t-tests were used for biomechanical comparison (Group1 and 2). A p-value smaller than 0.05 was considered statistically significant.
Corneal Topography and OCT: The EyeSys topography effective refractive power (Eff.Rp) and OCT images were collected at multiple time points in a 10-hour period after eye harvest. Diopter drop after CxL was calculated and compared relative to the baseline Eff.Rp.
as §1, with “animal.” for “animal. The corneas' cross-section and apical thickness were measured using an optical coherence tomographer (OQ LabScope Lumedica, North Carolina, USA) at the same time points described above. The thickness of the corneas was first segmented in ImageJ and calculated using a constant pixel-to-length conversion factor.”
Effective refractive power (Eff. RP) was measured using a handheld topographer (EyeSys Vista, Teas, USA) for Group 2A and 2B eyes. The first point measured at 0.5-1 hour represents the baseline initial refractive power after stabilization at the controlled intraocular pressure before any alterations. The second point measured at 2 hours represents the refractive power after the ribose solution application. The third point at 3.5 hours for Group 2A or 5 hours for Group 2B represents refractive power after ROS-Glycation-CXL or loading for control eyes. […]

Setting [3] is: 20% ribose + 1069 nm femtosecond laser 450 mW, coverslip deformation (Hypothesis 2A).

Entries after “also recorded” stand apart in the source; their conditions may differ.

As for `O=C[C@H](O)[C@H](O)[C@H](O)CO` [ribose], the “sustained thickness change, treated vs control” value in the assay with cornea [1] (Group 2A, 1.5 hr treatment) was “no significant difference; also recorded: no significant immediate and sustained corneal apical thickness differences”; in the assay on cornea [1] (Group 2B, 3 hr treatment) it was “no significant difference; also recorded: no significant immediate and sustained corneal apical thickness differences”. In addition, the “immediate thickness change, treated vs loading-only control” value in the assay with cornea [1] (Group 2A, 1.5 hr treatment, immediately after treatment) is “no significant thickness change difference; also recorded: no significant immediate and sustained corneal apical thickness differences”. Further, the entries for the “thickness increase compared to the baseline” value with cornea [1] (Group 2A) and in the assay with cornea [1] (Group 2B) were “above 100 μm” and “above 200 μm”, respectively. Moreover, in the assay with cornea [1] (Group 2B: coverslip flattening + 3 hr ROS-Glycation CxL, immediately after treatment), the “immediate apical thickness increase compared to loading-only control” value worked out at 400 nm. The “immediate diopter drop (words)” value is recorded as “significant Eff.RP diopter drop” in the assay with cornea [2] and “diopter drop immediately after treatment” with cornea [2] (listed as Ribose). The “sustained diopter drop (words)” value in the assay on cornea [2] was “statistically significant sustained Eff.RP diopter drop; also recorded: stably sustained”; with cornea [2] (listed as Ribose), “persistent at the 8-10 hours time point”. For the same compound, the “immediate diopter change” value with cornea [2] (setting [3]) is “diopter drop immediately after treatment”. In the assay on cornea [2] (setting [3]), the “persistence of diopter change” value is “not persistent and gradually recovered to the baseline”. Besides, the “immediate diopter drop (decrease in effective refractive power)” value in the assay on cornea [2] (Group 2A: 20% ribose 1 hr, 1.5 hr 365 nm UVA lamp under coverslip flattening) worked out at 5 diopters; in the assay with cornea [2] (Group 2B: 20% ribose 1 hr, 3 hr 365 nm UVA lamp under coverslip flattening) it was 10 diopters. In addition, the “sustained diopter drop (decrease in effective refractive power)” value in the assay on cornea [2] (Group 2A: 1.5 hr UVA treatment, 10 hr time point) was determined as 2.5 diopters. Moreover, the “refractive power drop, crosslinked vs control pairs, immediate and sustained” value with cornea [2] (Groups 2A and 2B: ribose + 1.5 hr or 3 hr UVA lamp with coverslip loading) is “sustained drop of refractive power; also recorded: Significant immediate and sustained refractive power drop differences”.

The values are drawn from US20250381274A1 (priority 2022, published 2025).
